Values of other authors, collected in patent publication US12569513B1, “Stable, highly pure L-cysteine compositions for injection and methods of use” (priority 2019, dated 2026).
Converted amounts (≈) assume the structure as drawn.

solubility: 50 mg/mL (≈ 413 mM)
Structure (SMILES): N[C@@H](CS)C(=O)O [L-Cysteine, 2-Amino-3-sulfhydrylpropanoic acid]
